Results taken from patent publication US12390441B2, “Immunomodulating o-het/aryl azalides” (Zoetis Services LLC, priority 2020, dated 2025).
Where two headings read alike, the source gives them in different places. Marks after values point to notes of the source that are not given here.

Columns and labels:
M. haemolytica = assay: In-vitro MIC model (CLSI broth micro-dilution); assay type: cell-based, Mannheimia haemolytica; details: for MIC: Mannheimia haemolytica, read-out: Comparative MIC
P. multocida = assay: In-vitro MIC model (CLSI broth micro-dilution); assay type: cell-based, Pasteurella multocida; details: for MIC: Pasteurella multocida, read-out: Comparative MIC
S. aureus (29213 ATCC) = assay: In-vitro MIC model (CLSI broth micro-dilution); assay type: cell-based
P. multocida 46572 = assay: In vivo mouse lung infection challenge model (murine); design: species or system CD-1 female mice; details: 46572, sc, 20 mg/kg, 240 h
Protocol: The challenge organism was P. multocida 46572. Target challenge concentration was 5×10^2 CFU/mouse. Isolated colonies from overnight growth (37° C. with 5% CO2) on trypticase soy agar (TSA II) blood plates were transferred to room temperature Brain Heart Infusion Broth (BHIB). The broth culture was incubated 3.5-4 hours to approximately mid-log phase of growth, as measured by forward light scatter at 600 nm (OD600, 0.200). The culture was centrifuged to collect the bacterial pellet. The pellet was re-suspended in BHIB and adjusted to provide an approximate concentration of 2.7 log^10 colony forming units (CFU) in 0.04 mL at the highest concentration. The challenge inoculum concentration was confirmed by serial dilutions of the inoculum for CFU enumeration. On Day −5, CD-1 female mice were received. Mice were given standard rodent diet and water ad libitum. On Day 0, bacterial inoculum (0.04 mL) was administered to each mouse (n=36) intranasally. Compounds of the invention were dosed at 20 mg/kg (0.1 mL) in a buffered (˜pH 5.4) propylene glycol, monothioglycerol and water solution by subcutaneous injection. Animals were observed from Days 1-10. The study was terminated on Day 10. In addition, some treatment groups were sampled at 6, 24, and 48 hours post bacterial challenge for RNA sequence analysis of lung tissue.
The murine efficacy model (P. multocida challenge) was optimized, and the treatment group size was powered to be able to observe statistically significant improvement of survival to expected ranges for immunomodulatory compounds. The experimental design was a randomized complete block design. Mice were individually identified and treatment groups comingled within a cage, with every treatment group equally represented across cages. Mortality was the primary variable. Mortality data was analyzed using a generalized mixed model with fixed effect of treatment and random effect of block. Survival time was also analyzed using the SAS PHREG (survival analysis) procedure to examine whether there were significant differences between treatment groups and the control group. Numerous compounds of the invention and M9 (positive control) were tested in this model at a dose of 20 mg/kg (Table 3). Typical percent survival for no treatment control is in the range of 0-20% based on study to study variation in challenge inoculum and rate of infection. […] Mouse survival for M9 was about 90-100%, further supporting its residual antibacterial properties against the bacterial strain. Harmonized survival accounts for % survival relative to vehicle (“−” control) and M9 (“+” control)) survival data (Table 3).

[1] = tested on: BRD pathogens, M. haemolytica and P. multocida; assay: In-vitro MIC model, BRD pathogen screening panel; assay type: cell-based, Mannheimia haemolytica; Pasteurella multocida; details: at least one BRD strain
TNF-α = assay: Whole blood assay, LPS stimulation, MSD cytokine detection; assay type: cell-based; details: fresh whole bovine blood
IL-1β = assay: as above; assay type: cell-based, bovine; details: fresh whole bovine blood, LPS stimulation; drug concentration giving overstimulation (OS) of IL-1β
IL-6 = assay: as above; assay type: cell-based; details: Bos taurus, fresh whole bovine blood
[2] = tested on: Lung bacteria isolated at necropsy; assay: MIC of recovered isolates, natural bovine respiratory disease study
Protocol: The primary clinical endpoint for efficacy was treatment failure/success over a 14-day observation period. Clinically normal beef calves (150-200 kg) at moderate risk for BRD were dosed on arrival to the feedlot. Animals (N=114/group) received saline (T01), 5 mg/kg M9 (T02) or 10 mg/kg M9 (T03); or Zactran (T04). […] Bacterial isolates were collected at necropsy and MICs were evaluated (Table 4).

[3] = M. haemolytica 46571, bovine efficacy challenge strain
[4] = P. multocida 46572, murine efficacy challenge strain
[5] = H. somni (25) lung isolates at necropsy
[6] = M. haemolytica (116) lung isolates at necropsy
[7] = P. multocida (33) lung isolates at necropsy

| SMILES | % Survival (P. multocida 46572) [%] | Comparative MIC (M. haemolytica; M. haemolytica 12726) [µg/mL] | Comparative MIC (M. haemolytica; M. haemolytica 33396) [µg/mL] | Comparative MIC (M. haemolytica; [3]) [µg/mL] | Comparative MIC (P. multocida; P. multocida 43137) [µg/mL] | Comparative MIC (P. multocida; [4]) [µg/mL] | Comparative MIC (S. aureus (29213 ATCC)) [µg/mL] | IC50 (TNF-α; Bos taurus) [µM] | IL-1ß OS of LPS (IL-1β) [µM] | further results |
| --- | --- | --- | --- | --- | --- | --- | --- | --- | --- | --- |
| CC[C@H]1OC(=O)[C@H](C)[C@@H](O)[C@H](C)[C@@H](O[C@@H]2O[C@H](C)C[C@H](NC)[C@H]2Oc2ccc(OC)cc2)[C@](C)(O)C[C@@H](C)CN[C@H](C)[C@@H](O)[C@]1(C)O [Example B-6, (2R,3S,4R,5R,8R,10R,11R,12S,13S,14R)-2-ethyl-3,4,10,13-tetrahydroxy-11-(((2S,3R,4S,6R)-3-(4-methoxyphenoxy)-6-methyl-4-(methylamino)tetrahydro-2H-pyran-2-yl)oxy)-3,5,8,10,12,14-hexamethyl-1-oxa-6-azacyclopentadecan-15-one] | 1 | – | – | – | – | – | – | – | – | MIC (M. haemolytica; M. haemolytica 12726): > 64 µg/mL; MIC (M. haemolytica; M. haemolytica 33396): > 64 µg/mL; MIC (M. haemolytica; [3]): > 64 µg/mL; MIC (P. multocida; P. multocida 43137): > 64 µg/mL; MIC (P. multocida; [4]): > 64 µg/mL; MIC (S. aureus (29213 ATCC); Staphylococcus aureus, read-out: Comparative MIC): > 64 µg/mL |
| CC[C@H]1OC(=O)[C@H](C)[C@@H](O)[C@H](C)[C@@H](O[C@@H]2O[C@H](C)C[C@H](N(C)C(=O)N(C)C3CC3)[C@H]2Oc2ccccc2)[C@](C)(O)C[C@@H](C)CN(C)[C@H](C)[C@@H](O)[C@]1(C)O [Example C-27] | – | >64 | >64 | >64 | >64 | >64 | >64 | – | – | – |
| CCCNC[C@]1(O)[C@H](C)O[C@@H](O[C@H]2[C@H](C)[C@@H](O[C@@H]3O[C@H](C)C[C@H](NC)[C@H]3Oc3ccc(F)cc3)[C@](C)(O)C[C@@H](C)CN[C@H](C)[C@@H](O)[C@](C)(O)[C@@H](CC)OC(=O)[C@@H]2C)C[C@@]1(C)OC [Example E-1, (2R,3S,4R,5R,8R,10R,11R,12S,13S,14R)-2-ethyl-11-(((2S,3R,4S,6R)-3-(4-fluorophenoxy)-6-methyl-4-(methylamino)tetrahydro-2H-pyran-2-yl)oxy)-3,4,10-trihydroxy-13-(((2R,4R,5S,6S)-5-hydroxy-4-methoxy-4,6-dimethyl-5-((propylamino)methyl)tetrahydro-2H-pyran-2-yl)oxy)-3,5,8,10,12,14-hexamethyl-1-oxa-6-azacyclopentadecan-15-one] | 57 | – | – | – | – | – | – | 6 | 32 | MIC flag at the example number (Table E) [1]: E-1* (MIC ≤ 64 μg/mL for at least one BRD strain) |
| CCCNC[C@]1(O)[C@H](C)O[C@@H](O[C@H]2[C@H](C)[C@@H](O[C@@H]3O[C@H](C)C[C@H](NC)[C@H]3Oc3ccc(OC)cc3)[C@](C)(O)C[C@@H](C)CN[C@H](C)[C@@H](O)[C@](C)(O)[C@@H](CC)OC(=O)[C@@H]2C)C[C@@]1(C)OC [Example E-2, (2R,3S,4R,5R,8R,10R,11R,12S,13S,14R)-2-ethyl-3,4,10-trihydroxy-13-(((2R,4R,5S,6S)-5-hydroxy-4-methoxy-4,6-dimethyl-5-((propylamino)methyl)tetrahydro-2H-pyran-2-yl)oxy)-11-(((2S,3R,4S,6R)-3-(4-methoxyphenoxy)-6-methyl-4-(methylamino)tetrahydro-2H-pyran-2-yl)oxy)-3,5,8,10,12,14-hexamethyl-1-oxa-6-azacyclopentadecan-15-one] | 36 | – | – | – | – | – | – | 6 | 32 | MIC flag at the example number (Table E) [1]: E-2* (MIC ≤ 64 μg/mL for at least one BRD strain) |
| CCCNC[C@]1(O)[C@H](C)O[C@@H](O[C@H]2[C@H](C)[C@@H](O[C@@H]3O[C@H](C)C[C@H](NC)[C@H]3Oc3cccc(OCC)c3)[C@](C)(O)C[C@@H](C)CN[C@H](C)[C@@H](O)[C@](C)(O)[C@@H](CC)OC(=O)[C@@H]2C)C[C@@]1(C)OC [Example E-13] | – | >64 | >64 | >64 | >64 | >64 | >64 | – | 40 | IC50 (TNF-α): 30 µM |
| CCCNC[C@]1(O)[C@H](C)O[C@@H](O[C@H]2[C@H](C)[C@@H](O[C@@H]3O[C@H](C)C[C@H](NC)[C@H]3Oc3ccc(C#N)cc3)[C@](C)(O)C[C@@H](C)CN[C@H](C)[C@@H](O)[C@](C)(O)[C@@H](CC)OC(=O)[C@@H]2C)C[C@@]1(C)OC [Example E-111, 4-(((2S,3R,4S,6R)-2-(((2R,3S,4R,5R,8R,10R,11R,12S,13S,14R)-2-ethyl-3,4,10-trihydroxy-13-(((2R,4R,5S,6S)-5-hydroxy-4-methoxy-4,6-dimethyl-5-((propylamino)methyl)tetrahydro-2H-pyran-2-yl)oxy)-3,5,8,10,12,14-hexamethyl-15-oxo-1-oxa-6-azacyclopentadecan-11-yl)oxy)-6-methyl-4-(methylamino)tetrahydro-2H-pyran-3-yl)oxy)benzonitrile] | 22 | – | – | – | – | – | – | 9 | 80 | IC50 (IL-6): 90 µM |
| CCCNC[C@]1(O)[C@H](C)O[C@@H](O[C@H]2[C@H](C)[C@@H](O[C@@H]3O[C@H](C)C[C@H](N(C)C(=O)N4CCN(CC)CC4)[C@H]3Oc3ccc(OC)c(OCC)c3)[C@](C)(O)C[C@@H](C)CN[C@H](C)[C@@H](O)[C@](C)(O)[C@@H](CC)OC(=O)[C@@H]2C)C[C@@]1(C)OC [Example G-3] | – | >64 | >64 | >64 | >64 | >64 | >64 | – | – | – |
| CCCN1C[C@H](C)[C@@H](O)[C@](C)(O)[C@@H](CC)OC(=O)[C@H](C)[C@@H](O[C@H]2C[C@@](C)(OC)[C@@H](O)[C@H](C)O2)[C@H](C)[C@@H](O[C@@H]2O[C@H](C)C[C@H](N(C)C)[C@H]2O)[C@](C)(O)C[C@H]1C [gamithromycin (Zactran)] | – | – | – | – | – | – | – | – | – | MIC50 [2, 5]: 0.25 µg/mL; MIC90 [2, 5]: 2 µg/mL; MIC50 [2, 6]: 1 µg/mL; MIC90 [2, 6]: >64 µg/mL; MIC50 [2, 7]: 1 µg/mL; MIC90 [2, 7]: >64 µg/mL |
